Results from EP0867722A2, “Method for measuring interaction between sugar and target” (TAKARA SHUZO CO. LTD., priority 1997, dated 1998).

Tested on: not listed separately
Assay: Photostability of labeling fluorophores under white fluorescent lamp (residual fluorescence)
Type: physicochemical
Conditions: 1 µM in 10 mM Tris-HCl buffer, pH 7.5, 25°C, white fluorescent lamp about 4000 lux, 16 hours; ratio of exposed solution to shaded solution
Description: For the measurement of photostability, therefore, such labeling fluorophores are used. The following seven labeling fluorophores were selected. • 1. 2-Aminopyridine (AP) (Nacalai Tesque Inc.) • 2. […] 8-Amino-2-naphthol (AN) (Aldrich Chemical Company, Inc.) • 4. 5-((5-aminopentyl)thioureidyl)fluorescein (AF) (Molecular Probes Inc.) • 5. 5-Dimethylaminonapnthalene-1-(N-(2-minoethyl))sulfone (AD) (Molecular Probes Inc.) • 6. 2-Aminobenzamide (AB) (Oxford GlycoSystems Ltd.) • 7. 8-Amino-naphthalene-1,3,6-trisulfonic acid (ANTS) (Molecular Probes Inc.)
Each of the above reagents was dissolved in 10 mM Tris-HCl buffer, pH 7.5, to a concentration of 1 µM, and 1 ml of each solution was placed in a test tube of hard glass (size: diameter, 12 mm and length, 120mm) and allowed to stand at 25°C under a white fluorescent lamp. At this time, the illumination intensity in the vicinity of each solution was measured by an illumination photometer to be about 4000 lux. For controls, test tubes containing the same solutions were prepared, but they were shaded with aluminum foil and stored under the same conditions as described above. After 16 hours, the fluorescence of each solution was measured by fluorescent spectrophotometer RF-540 (Shimazu Corp.). The excitation and emission wavelengths used in the measurement of fluorescence of the solutions of each fluorescent substance, and residual fluorescence (i.e., ratio of the relative degree of fluorescence for the exposed solution to the relative degree of fluorescence for the shaded solution) are shown in Table 1.

SMILES | Residual fluorescence (%)
NC(=O)c1ccccc1N [AB, 2-Aminobenzamide] | 96%
CN(C)c1cccc2c(S(=O)(=O)NCCN)cccc12 [AD, 5-Dimethylaminonapnthalene-1-(N-(2-minoethyl))sulfone] | 97%
NCCCCCNC(=S)Nc1ccc2c(c1)C(=O)OC21c2ccc(O)cc2Oc2cc(O)ccc21 [AF, 5-((5-aminopentyl)thioureidyl)fluorescein] | 17%
Nc1cccc2ccc(O)cc12 [AN, 8-Amino-2-naphthol] | 84%
Nc1cc(S(=O)(=O)O)cc2cc(S(=O)(=O)O)cc(S(=O)(=O)O)c12 [ANTS, 8-Amino-naphthalene-1,3,6-trisulfonic acid] | 96%
Nc1ccccn1 [AP, 2-Aminopyridine] | 98%

Biological target: T1, concanavalin A (Canavalia ensiformis, UniProt P02866)
T1 construct: purchased Honen Oil Co., Ltd
Assay: Fluorescence polarization measurement of interaction between fluorescence-labeled sugar fractions and concanavalin A
Type: binding
Conditions: 1 µM labeled sugar or fluorophore; no maximum means EC50 impossible to calculate
Description: The interaction between the sugar molecules and the target molecules to be measured is not always highly specific as compared with antigen-antibody reaction. To find the most suitable combination, the degree of interaction should be evaluated. As an index to show the degree of interaction, for example, EC50 can be used, which is a half value of the minimum target concentration giving the maximum degree of fluorescence polarization.
BEACON™ 2000 (PanVera Corp.) was modified so as to be adapted for the detection of pyridylamino-labeled substances. […]
Seven fractions of fluorescence-labeled sugars prepared in the above item 1 were freeze-dried to remove water, acetonitrile and eluents-derived salts, and then used for the subsequent measurement of an interaction. The measurement of the degree of fluorescence polarization was conducted as follows. […]
In each of the eight solutions of concanavalin A in various concentrations, each fluorescence-labeled sugar fraction was dissolved to a concentration of 1 µM. After the dissolution, the solutions were allowed to stand at room temperature for 30 minutes, and the reaction mixtures thus obtained were used each in a volume of 100 µl to measure the degree of fluorescence polarization with a modified apparatus of the BEACON™ system as described in the above item 2, which was equipped with filters for excitation at 310 nm and emission at 390 nm. […]

SMILES | maximum in the degree of fluorescence polarization over the range of concentration of concanavalin A
Nc1ccccn1 [AP, 2-Aminopyridine] | no maximum
